Test results reported in patent US10499641B2 (priority 2010, dated 2019).

system: Phytophthora infestans; type: in vivo; conditions: young tomato plants, sprayed, active ingredient concentration 100 ppm, inoculated 1 day after treatment, evaluation 7 days after inoculation; 100% = no infection

Row | SMILES | Eff. %
1 | CC(C)ON=Cc1cccc(C2CC(c3csc(C4CCN(C(=O)Cn5nc(C(F)F)cc5C(F)F)CC4)n3)=NO2)c1 (mixture of isomers) [Example I-6] | 100%
2 | Cc1cc(C(F)(F)F)nn1CC(=O)N1CCC(c2nc(C3=NOC(c4cccc(C=NOC(C)C)c4)C3)cs2)CC1 (mixture of isomers) [Example I-8] | 100%
3 | CC(=NOC(C)C)c1cccc(C2CC(c3csc(C4CCN(C(=O)Cn5nc(C(F)(F)F)cc5C)CC4)n3)=NO2)c1 (mixture of isomers) [Example I-9] | 100%
4 | CCON=Cc1cccc(C2CC(c3csc(C4CCN(C(=O)Nc5cc(Cl)ccc5C)CC4)n3)=NO2)c1 (mixture of isomers) [Example I-12] | 95%
5 | CC(=NOC(C)C)c1cccc(C2CC(c3csc(C4CCN(C(=O)Cn5nc(C(F)F)cc5C(F)F)CC4)n3)=NO2)c1 (mixture of isomers) [Example I-20] | 100%
6 | CCON=Cc1cccc(C2CC(c3csc(C4CCN(C(=O)Cn5nc(C(F)F)cc5C(F)F)CC4)n3)=NO2)c1 (mixture of isomers) [Example I-24] | 100%
7 | CC(=NOC(C)C)c1ccccc1C1CC(c2csc(C3CCN(C(=O)Cn4nc(C(F)F)cc4C(F)F)CC3)n2)=NO1 (mixture of isomers) [Example I-28] | 100%
8 | CC(=NOC(C)C)c1ccccc1C1CC(c2csc(C3CCN(C(=O)Cn4nc(C(F)(F)F)cc4C)CC3)n2)=NO1 (mixture of isomers) [Example I-30] | 100%
9 | CCON=Cc1ccccc1C1CC(c2csc(C3CCN(C(=O)Nc4cc(Cl)ccc4C)CC3)n2)=NO1 (mixture of isomers) [Example I-33] | 100%
10 | Cc1ccc(Cl)cc1NC(=O)N1CCC(c2nc(C3=NOC(c4ccccc4C=NOC(C)C)C3)cs2)CC1 (mixture of isomers) [Example I-37] | 100%
11 | Cc1cc(C(F)(F)F)nn1CC(=O)N1CCC(c2nc(C3=NOC(c4ccccc4C=NOC(C)C)C3)cs2)CC1 (mixture of isomers) [Example I-39] | 100%
12 | CC(C)ON=Cc1ccccc1C1CC(c2csc(C3CCN(C(=O)Cn4nc(C(F)F)cc4C(F)F)CC3)n2)=NO1 (mixture of isomers) [Example I-42] | 100%
13 | CCON=Cc1cccc(C2CC(c3csc(C4CCN(C(=O)Cn5nc(C(F)(F)F)cc5C)CC4)n3)=NO2)c1 (stereo not shown) [Example I-11] | 100%
14 | Cc1ccc(Cl)cc1NC(=O)N1CCC(c2nc(C3=NOC(c4cccc(C=NOC(C)C)c4)C3)cs2)CC1 (stereo not shown) [Example I-13] | 100%
15 | CC1(c2ccccc2OS(C)(=O)=O)CC(c2csc(C3CCN(C(=O)Cn4nc(C(F)F)cc4C(F)F)CC3)n2)=NO1 (stereo not shown) [Example I-43] | 94%
16 | Cc1cc(C(F)F)nn1CC(=O)N1CCC(c2nc(C3=NOC(C)(c4ccccc4OS(C)(=O)=O)C3)cs2)CC1 (stereo not shown) [Example I-44] | 94%
17 | COCCS(=O)(=O)Cc1ccccc1C1CC(c2csc(C3CCN(C(=O)Cn4nc(C(F)(F)F)cc4C)CC3)n2)=NO1 (stereo not shown) [Example I-45] | 94%
18 | Cc1ccc(S(=O)(=O)Oc2ccccc2C2(C)CC(c3csc(C4CCN(C(=O)Cn5nc(C(F)F)cc5C(F)F)CC4)n3)=NO2)cc1 (stereo not shown) [Example I-48] | 94%
19 | Cc1ccc(S(=O)(=O)Oc2ccccc2C2(C)CC(c3csc(C4CCN(C(=O)Cn5nc(C(F)F)cc5C)CC4)n3)=NO2)cc1 (stereo not shown) [Example I-49] | 94%
20 | CS(=O)(=O)Oc1ccc(F)c(C2CC(c3csc(C4CCN(C(=O)Cn5nc(C(F)F)cc5C(F)F)CC4)n3)=NO2)c1F (stereo not shown) [Example I-50] | 94%
21 | Cc1cc(C(F)F)nn1CC(=O)N1CCC(c2nc(C3=NOC(c4ccccc4OS(C)(=O)=O)C3)cs2)CC1 (stereo not shown) [Example I-51] | 97%
22 | Cc1ccc(C)c(NC(=O)N2CCC(c3nc(C4=NOC(c5c(Cl)cccc5OS(C)(=O)=O)C4)cs3)CC2)c1 (stereo not shown) [Example I-52] | 94%

Row | SMILES | Eff. %
23 | COCC[S+]([O-])Cc1ccccc1C1CC(c2csc(C3CCN(C(=O)Cn4nc(C(F)F)cc4C(F)F)CC3)n2)=NO1 (stereo not shown) [Example I-56] | 94%
24 | CS(=O)(=O)Oc1cc(Cl)ccc1C1CC(c2csc(C3CCN(C(=O)Cn4nc(C(F)F)cc4C(F)F)CC3)n2)=NO1 (stereo not shown) [Example I-70] | 97%
25 | N#CCOc1cc(Cl)ccc1C1CC(c2csc(C3CCN(C(=O)Cn4nc(C(F)F)cc4C(F)F)CC3)n2)=NO1 (stereo not shown) [Example I-71] | 100%
26 | C=CCOCc1ccccc1C1CC(c2csc(C3CCN(C(=O)Cn4nc(C(F)(F)F)cc4C)CC3)n2)=NO1 (stereo not shown) [Example I-93] | 95%
27 | C=CCOCc1ccccc1C1CC(c2csc(C3CCN(C(=O)Cn4nc(C(F)F)cc4C(F)F)CC3)n2)=NO1 (stereo not shown) [Example I-94] | 100%
28 | Cc1cc(C(F)(F)F)nn1CC(=O)N1CCC(c2nc(C3=NOC(c4cccc(OCC#N)c4)C3)cs2)CC1 (stereo not shown) [Example I-95] | 100%
29 | Cc1cc(C(F)(F)F)nn1CC(=O)N1CCC(c2nc(C3=NOC(c4ccc(OS(C)(=O)=O)cc4)C3)cs2)CC1 (stereo not shown) [Example I-96] | 95%
30 | CCS(=O)(=O)Oc1ccc(C2CC(c3csc(C4CCN(C(=O)Cn5nc(C(F)(F)F)cc5C)CC4)n3)=NO2)cc1 (stereo not shown) [Example I-97] | 95%
31 | Cc1cc(C(F)(F)F)nn1CC(=O)N1CCC(c2nc(C3=NOC(c4ccc(OS(=O)(=O)C5CC5)cc4)C3)cs2)CC1 (stereo not shown) [Example I-98] | 95%
32 | CCS(=O)(=O)Oc1cccc(C2CC(c3csc(C4CCN(C(=O)Cn5nc(C(F)(F)F)cc5C)CC4)n3)=NO2)c1 (stereo not shown) [Example I-99] | 100%
33 | COCCSCc1ccccc1C1CC(c2csc(C3CCN(C(=O)Cn4nc(C(F)F)cc4C(F)F)CC3)n2)=NO1 (stereo not shown) [Example I-100] | 100%
34 | Cc1cc(C(F)(F)F)nn1CC(=O)N1CCC(c2nc(C3=NOC(c4cccc(OS(=O)(=O)C5CC5)c4)C3)cs2)CC1 (stereo not shown) [Example I-101] | 100%
35 | C=CC(=O)Oc1ccccc1C1CC(c2csc(C3CCN(C(=O)Cn4nc(C(F)(F)F)cc4C)CC3)n2)=NO1 (stereo not shown) [Example I-104] | 97%
36 | O=C(Cn1nc(C(F)F)cc1C(F)F)N1CCC(c2nc(C3=NOC(c4ccccc4OC(=O)C4(Cl)CC4)C3)cs2)CC1 (stereo not shown) [Example I-107] | 100%
37 | Cc1cc(C(F)(F)F)nn1CC(=O)N1CCC(c2nc(C3=NOC(c4ccccc4NC=O)C3)cs2)CC1 (stereo not shown) [Example I-109] | 100%
38 | N#CCOc1cccc(C2CC(c3csc(C4CCN(C(=O)Cn5nc(C(F)F)cc5C(F)F)CC4)n3)=NO2)c1 (stereo not shown) [Example I-110] | 100%
39 | Cc1cc(C(F)(F)F)nn1CC(=O)N1CCC(c2nc(C3=NOC(c4cccc(F)c4OCC#N)C3)cs2)CC1 (stereo not shown) [Example I-111] | 98%
40 | O=C(O)c1ccccc1C1CC(c2csc(C3CCN(C(=O)Cn4nc(C(F)F)cc4C(F)F)CC3)n2)=NO1 (stereo not shown) [Example I-134] | 93%
41 | CCNC(=O)Oc1ccccc1C1CC(c2csc(C3CCN(C(=O)Cn4nc(C(F)F)cc4C(F)F)CC3)n2)=NO1 (stereo not shown) [Example I-136] | 93%
42 | O=C(Cn1nc(C(F)F)cc1C(F)F)N1CCC(c2nc(C3=NOC(c4cccc(OCC#Cc5cccc6ccccc56)c4)C3)cs2)CC1 (stereo not shown) [Example I-137] | 100%
43 | C=CCOCc1ccccc1C1CC(c2csc(C3CCN(C(=O)Cn4nc(C(F)F)cc4C(F)F)CC3)n2)=NO1 (stereo not shown) [Example I-139] | 80%
